Here are results for five compounds from article PMC10525312, “Identification of a Novel Bioactive Peptide Derived from Frozen Chicken Breast Hydrolysate and the Utilization of Hydrolysates as Biopreservatives” (Biology, 2023).

A word on the IC50: it is the concentration at which inhibition is half-maximal.

The conditions of experiment [1]: commercial food antioxidants; cited from earlier work. The text has this:
Free radicals can be produced as a result of lipid oxidation, causing major health issues and having a negative impact on food quality. One of the solutions to prevent lipid oxidation is the use of protein hydrolysates.

The test system of another experiment is ACE. The note with it: peptides after in vitro gastrointestinal digestion of chicken meat; read-out: ACE inhibitory activity IC50; cited from earlier work. From the text: The ACE inhibitory activity of C25 was more po ...
In experiment [2] the test system is Pseudomonas putida ATCC 12633^T. Put plainly: MIC, broth microdilution assay, Pseudomonas putida. In kind it is cell-based. The note with it: C25, Luria Bertani medium, OD 620 nm, twofold dilutions. From the text: (§1) The following indicator bacteria were used to determine the minimum inhibitory concentrations (MICs) as described by Wiegand et al. and Maky and Zendo [14] by using a broth microdilution assay. Weizmannia (Bacillus) coagulans JCM 2257^T, Salmonella enterica serovar Typhimurium NBRC 13243^T, Listeria innocua ATCC 33090^T, Proteus vulgaris F24B [24] and Escherichia coli JM109 were cultivated in Tryptic Soy Broth (BD, Sparks, MD, USA) supplemented with 0.6% yeast extract. Enterococcus faecalis JCM 5803^T was cultivated in MRS medium (Oxoid, Basingstoke, UK), while Pseudomonas putida ATCC 12633^T was cultivated in Luria Bertani medium (BD). Briefly, the bacterial inhibition was assessed at an optical density at 620 nm using an Infinite F200 Pro microplate reader (Tecan, Männedorf, Switzerland) after the indicator strains were cultured with twofold serial dilutions of chicken hydrolysates and C25.
In general terms: Dilution methods test growth across graded concentrations, often in twofold steps.

Experiment [3] is described as follows: DPPH antioxidant activity assay (DPPH antioxidant assay kit). In kind it is biochemical. The note with it: 25 °C for 30 min in the dark, absorbance 450 nm. As to the method:
The antioxidant activity of the chicken hydrolysate and C25 was assessed utilizing a DPPH antioxidant assay kit (Dojindo Laboratories) as described in the instructions provided by the manufacturer and as elaborated by Maky and Zendo [14]. Briefly, 20 µL of the investigated samples was applied to a microtiter plate and 80 µL of assay buffer, 100 µL of ethanol and 100 µL of DPPH working solution were mixed with the samples. Then, the plate was incubated at 25 °C for 30 min in the dark. The absorbance was measured by using a Sunrise microplate absorbance reader (Tecan) at 450 nm.
A general note: DPPH is a stable violet radical that fades when it is reduced.

Experiment [4] relates to Weizmannia coagulans JCM 2257^T. Put plainly: MIC, broth microdilution assay, Weizmannia coagulans. The experiment is classed as cell-based, Weizmannia (Bacillus) coagulans. The note with it: C25, Tryptic Soy Broth + 0.6% yeast extract, OD 620 nm, twofold dilutions.
Description: as §1

Experiment [5] has as its system Enterococcus faecalis JCM 5803^T. Put plainly: MIC, broth microdilution assay, Enterococcus faecalis. The experiment is classed as cell-based. The note with it: C25, MRS medium, OD 620 nm, twofold dilutions.
Description: as §1

Experiment [6] relates to Listeria innocua ATCC 33090^T. Put plainly: MIC, broth microdilution assay, Listeria innocua. The experiment is classed as cell-based. The note with it: C25, Tryptic Soy Broth + 0.6% yeast extract, OD 620 nm, twofold dilutions.
Description: as §1

Experiment [7] relates to Salmonella enterica serovar Typhimurium NBRC 13245^T. Kind of experiment: MIC, broth microdilution assay, Salmonella Typhimurium. The experiment is classed as cell-based. The note with it: C25, Tryptic Soy Broth + 0.6% yeast extract, OD 620 nm, twofold dilutions.
Description: as §1

Consider `Cc1cc(C(C)(C)C)c(O)c(C(C)(C)C)c1` [butylated hydroxytoluene (BHT), butylated hydroxytoluene], for which the “Antioxidant activity IC50” value in experiment [1] is listed as 202.35 µg/mL.
For ELFTT, in the experiment with ACE, the IC50 is 6.35 µM.
Take `COc1ccc(O)c(C(C)(C)C)c1` [Butylated hydroxyanisole (BHA), Butylated hydroxyanisole]: the “Antioxidant activity IC50” value in experiment [1] was 112.05 µg/mL.
Take KPLL: the IC50 in the experiment on ACE was 12 µM.
For the compound H-IHAEEILDIRGNPTVEVDLHTAKGH-OH [C25], the “MIC (class symbol)” value in experiment [2], in experiment [4], in experiment [5], in experiment [6] and in experiment [7] was “NA ^2 (NA ^2 > 24 μg/mL)” in each case. In experiment [3], the “Antioxidant activity (in words)” value is on record as “no activity was observed”.
